Experimental data reported in patent publication US20250114337A1, “METHODS FOR VASCULAR REGENERATION AND WOUND TREATMENT” (THE METHODIST HOSPITAL, priority 2022, published 2025).
“Also recorded” adds a separate entry of the source.

Experiments:
[1] = system: H3.3 deposition; experiment: H3.3-SNAP tagging, quench-chase-pulse TMR-Star labeling; assay type: cell-based; conditions: Poly I:C + OSMI
Text: To identify the role of O-GlcNAcylation of histone variant h3.3 chaperone protein, HIRA, on transdifferentiation. The effects of O-GlcNAcylation on proteins that may be involved in the epigenetic regulation of transdifferentiation can be assessed. Nucleosome turnover is known to be tightly interrelated with DNA accessibility, and histone variant h3.3 is a hallmark of regulatory regions in the mammalian genome and is required to establish open chromatins. HIRA is the chaperone for h3.3, it forms a complex with other subunits, including ASF1. UBN, and CABIN, and is responsible for h3.3 deposition on the chromatin. OGT interacts with and O-GlcNAcylates HIRA, both of which are critical for the formation of the HIRA-h3.3 complex and h3.3 deposition and its dependent gene activation. […] The role of HIRA in transdifferentiation with fibroblasts that have HIRA knocked down or overexpressed can be determined. […] Thereafter, the de novo deposited SNAP-h3.3 will be pulse-labeled with the TMR-Star, which is a readily detectable and quantifiable red-fluorescent substrate. […]
To test whether innate immune activation enhances the H3.3 deposition in the chromatin, the H3.3-SNAP tagging system was generated where the newly synthesized H3.3 will be detected by fluorescent TMR-Star labeling with quench-chase-pulse strategy.

[2] = system: ischemic hindlimb mice model; experiment: hindlimb ischemia recovery in WT C57BL/6 mice, laser doppler imaging; assay type: in vivo, mouse; conditions: OSMI4 10 mg/kg 0, 1, 2 days post-surgery; younger mice (8 to 12 weeks)
Method: O-GlcNAcylation manipulations regulated recovery from tissue ischemia. To determine if the change in O-GlcNAcylation can modulate limb ischemia recovery, and contributes to vascular recovery, WT C57BL/6 mice were treated with the O-GlcNAcylation inhibitor, OSMI4, or O-GlcNAcylation enhancer, TMG 0, 1, 2 days post-surgery. Age is an important factor that determines recovery, and younger mice are known to have a more robust angiogenic response as compared with older mice. Accordingly, younger mice (between 8 to 12 weeks) were used to assess the impairment of angiogenesis by OSMI (which reduces O-GlcNAcylation). Older mice (around 20 weeks) were used to assess the enhancement of angiogenesis by TMG (which increases O-GlcNAcylation). […] It will be determined whether this beneficial effect is mediated by increased DNA accessibility and enhanced transdifferentiation.
To determine if O-GlcNAcylation manipulations can modulate the overall effect of vascular recovery from limb ischemia. WT C57BL/6 mice were treated with the O-GlcNAcylation inhibitor. OSMI4 (10 mg/kg), or O-GlcNAcylation enhancer. TMG (10 mg/kg) 0, 1, 2 days post-surgery (FIG. 19A).

SMILES: CCOC(=O)CN(Cc1cccs1)C(=O)[C@H](NS(=O)(=O)c1cc2ccc(=O)[nH]c2cc1Cl)c1ccccc1OC [OSMI]
- Poly I:C-enhanced H3.3 deposition [1]: impaired
- recovery of blood flow post femoral artery ligation (revascularization) [2]: impaired recovery; also recorded: impairs
